{"source": "paper PMC11672637", "about": "“7-O-Carboxylic Acid-Substituted 3-O-Alkyl Difluoroquercetin; An Aztreonam-Potentiating Agent Against Carbapenemase-Producing Pseudomonas aeruginosa Through Simultaneous Inhibition of Metallo-β-Lactamase and Efflux Pump” (Antibiotics, 2024)", "key": {"PA-040, blaNDM": {"tested_on": "PA-040, blaNDM", "assay": "MIC / checkerboard with ATM", "format": "cell-based, P. aeruginosa", "details": "for MIC: Pseudomonas aeruginosa, read-out: MIC of ATM with 5, PA-040"}, "[1]": {"tested_on": "ATM-Susceptible CPPA (n = 11)", "assay": "MIC distribution over clinical isolates", "format": "cell-based, P. aeruginosa", "details": "Pseudomonas aeruginosa"}, "In vivo toxicity": {"assay": "In vivo toxicity", "details": "6-week-old C57BL/6J female mouse"}, "PA-003, blaVIM": {"tested_on": "PA-003, blaVIM", "assay": "MIC / checkerboard with ATM", "format": "cell-based, P. aeruginosa", "details": "PA-003"}, "PA-037, blaIMP/NDM": {"tested_on": "PA-037, blaIMP/NDM", "assay": "MIC / checkerboard with ATM", "format": "cell-based, P. aeruginosa", "details": "for MIC: Pseudomonas aeruginosa, read-out: MIC of ATM with 5, PA-037"}, "PA-039, blaNDM": {"tested_on": "PA-039, blaNDM", "assay": "MIC / checkerboard with ATM", "format": "cell-based, P. aeruginosa", "details": "for MIC: Pseudomonas aeruginosa, read-out: MIC of ATM with 5, PA-039"}}, "note": "Where two headings read alike, the source gives them in different places."}
{"smiles": "CC(C)(C)CCOc1c(-c2ccc(F)c(F)c2)oc2cc(OCC(=O)O)cc(O)c2c1=O", "note": "[Compound 5, 2-((2-(3,4-Difluorophenyl)-3-(3,3-dimethylbutoxy)-5-hydroxy-4-oxo-4H-chromen-7-yl)oxy)acetic Acid]", "values": [{"measurement": "Activity (FICI class)", "setting": "PA-040, blaNDM; PA-040", "result": "S (S (Synergy, FICI ≤ 0.5))"}, {"measurement": "Concentrations of ATM and 5 at lowest FICI (ATM/5)", "setting": "PA-040, blaNDM; PA-040", "result": "1/32"}, {"measurement": "Lowest FICI (ATM/5)", "setting": "PA-040, blaNDM; PA-040", "result": 0.31}, {"measurement": "Susceptibility to ATM", "setting": "PA-040, blaNDM; PA-040, ATM/5", "result": "S (S (sensitive, MIC ≤ 8 mg/L))"}, {"measurement": "FD (fold decrease in MIC of ATM with 5)", "setting": "PA-040, blaNDM; PA-040, lowest-FICI combination", "result": 4}, {"measurement": "MIC", "setting": "PA-040, blaNDM; 5 at 1 mg/L", "result": 4, "unit": "µg/mL"}, {"measurement": "MIC", "setting": "PA-040, blaNDM; 5 at 2 mg/L", "result": 4, "unit": "µg/mL"}, {"measurement": "MIC", "setting": "PA-040, blaNDM; 5 at 4 mg/L", "result": 2, "unit": "µg/mL"}, {"measurement": "MIC", "setting": "PA-040, blaNDM; 5 at 8 mg/L", "result": 2, "unit": "µg/mL"}, {"measurement": "MIC", "setting": "PA-040, blaNDM; 5 at 16 mg/L", "result": 2, "unit": "µg/mL"}, {"measurement": "MIC", "setting": "PA-040, blaNDM; 5 at 32 mg/L", "result": 1, "unit": "µg/mL"}, {"measurement": "MIC", "setting": "PA-040, blaNDM; 5 at 64 mg/L", "result": 1, "unit": "µg/mL"}, {"measurement": "MIC50", "setting": "[1]; read-out: MIC50 of ATM, 5 at 1 mg/L", "result": 4, "unit": "µg/mL"}, {"measurement": "MIC50", "setting": "[1]; read-out: MIC50 of ATM, 5 at 2 mg/L", "result": 2, "unit": "µg/mL"}, {"measurement": "MIC50", "setting": "[1]; read-out: MIC50 of ATM, 5 at 4 mg/L", "result": 2, "unit": "µg/mL"}, {"measurement": "MIC50", "setting": "[1]; read-out: MIC50 of ATM, 5 at 8 mg/L", "result": 2, "unit": "µg/mL"}, {"measurement": "MIC50", "setting": "[1]; read-out: MIC50 of ATM, 5 at 16 mg/L", "result": 1, "unit": "µg/mL"}, {"measurement": "MIC50", "setting": "[1]; read-out: MIC50 of ATM, 5 at 32 mg/L", "result": 1, "unit": "µg/mL"}, {"measurement": "MIC50", "setting": "[1]; read-out: MIC50 of ATM, 5 at 64 mg/L", "result": 1, "unit": "µg/mL"}, {"measurement": "MIC90", "setting": "[1]; read-out: MIC90 of ATM, 5 at 1 mg/L", "result": 8, "unit": "µg/mL"}, {"measurement": "MIC90", "setting": "[1]; read-out: MIC90 of ATM, 5 at 2 mg/L", "result": 4, "unit": "µg/mL"}, {"measurement": "MIC90", "setting": "[1]; read-out: MIC90 of ATM, 5 at 4 mg/L", "result": 4, "unit": "µg/mL"}, {"measurement": "MIC90", "setting": "[1]; read-out: MIC90 of ATM, 5 at 8 mg/L", "result": 2, "unit": "µg/mL"}, {"measurement": "MIC90", "setting": "[1]; read-out: MIC90 of ATM, 5 at 16 mg/L", "result": 2, "unit": "µg/mL"}, {"measurement": "MIC90", "setting": "[1]; read-out: MIC90 of ATM, 5 at 32 mg/L", "result": 2, "unit": "µg/mL"}, {"measurement": "MIC90", "setting": "[1]; read-out: MIC90 of ATM, 5 at 64 mg/L", "result": 2, "unit": "µg/mL"}, {"measurement": "Dose up to which no toxicity was shown", "setting": "In vivo toxicity", "result": "≥ 40", "unit": "mg/kg"}, {"measurement": "Activity (FICI class)", "setting": "PA-003, blaVIM", "result": "I (I (indifference, 0.5 < FICI ≤ 4))"}, {"measurement": "Concentrations of ATM and 5 at lowest FICI (ATM/5)", "setting": "PA-003, blaVIM", "result": "16/1"}, {"measurement": "Minimum concentration of 5 to make sensitive to ATM", "setting": "PA-003, blaVIM", "result": 1, "unit": "mg/L"}, {"measurement": "MIC of ATM with 5", "setting": "PA-003, blaVIM; 5 at 2 mg/L", "result": 16, "unit": "µg/mL"}, {"measurement": "MIC of ATM with 5", "setting": "PA-003, blaVIM; 5 at 4 mg/L", "result": 16, "unit": "µg/mL"}, {"measurement": "MIC of ATM with 5", "setting": "PA-003, blaVIM; 5 at 8 mg/L", "result": 16, "unit": "µg/mL"}, {"measurement": "MIC of ATM with 5", "setting": "PA-003, blaVIM; 5 at 16 mg/L", "result": 16, "unit": "µg/mL"}, {"measurement": "MIC of ATM with 5", "setting": "PA-003, blaVIM; 5 at 32 mg/L", "result": 16, "unit": "µg/mL"}, {"measurement": "MIC of ATM with 5", "setting": "PA-003, blaVIM; 5 at 64 mg/L", "result": 16, "unit": "µg/mL"}, {"measurement": "Susceptibility to ATM", "setting": "PA-003, blaVIM; ATM/5", "result": "I (I (intermediate, MIC = 16 mg/L))"}, {"measurement": "FD (fold decrease in MIC of ATM with 5)", "setting": "PA-003, blaVIM; lowest-FICI combination", "result": 2}, {"measurement": "MIC", "setting": "PA-003, blaVIM; Pseudomonas aeruginosa, read-out: MIC of ATM with 5, 5 at 1 mg/L", "result": 16, "unit": "µg/mL"}, {"measurement": "Activity (FICI class)", "setting": "PA-037, blaIMP/NDM; PA-037", "result": "S (S (Synergy, FICI ≤ 0.5))"}, {"measurement": "Concentrations of ATM and 5 at lowest FICI (ATM/5)", "setting": "PA-037, blaIMP/NDM; PA-037", "result": "1/8"}, {"measurement": "Lowest FICI (ATM/5)", "setting": "PA-037, blaIMP/NDM; PA-037", "result": 0.27}, {"measurement": "Susceptibility to ATM", "setting": "PA-037, blaIMP/NDM; PA-037, ATM/5", "result": "S (S (sensitive, MIC ≤ 8 mg/L))"}, {"measurement": "FD (fold decrease in MIC of ATM with 5)", "setting": "PA-037, blaIMP/NDM; PA-037, lowest-FICI combination", "result": 4}, {"measurement": "MIC", "setting": "PA-037, blaIMP/NDM; 5 at 1 mg/L", "result": 2, "unit": "µg/mL"}, {"measurement": "MIC", "setting": "PA-037, blaIMP/NDM; 5 at 2 mg/L", "result": 2, "unit": "µg/mL"}, {"measurement": "MIC", "setting": "PA-037, blaIMP/NDM; 5 at 4 mg/L", "result": 2, "unit": "µg/mL"}, {"measurement": "MIC", "setting": "PA-037, blaIMP/NDM; 5 at 8 mg/L", "result": 1, "unit": "µg/mL"}, {"measurement": "MIC", "setting": "PA-037, blaIMP/NDM; 5 at 16 mg/L", "result": 1, "unit": "µg/mL"}, {"measurement": "MIC", "setting": "PA-037, blaIMP/NDM; 5 at 32 mg/L", "result": 1, "unit": "µg/mL"}, {"measurement": "MIC", "setting": "PA-037, blaIMP/NDM; 5 at 64 mg/L", "result": 1, "unit": "µg/mL"}, {"measurement": "Activity (FICI class)", "setting": "PA-039, blaNDM; PA-039", "result": "S (S (Synergy, FICI ≤ 0.5))"}, {"measurement": "Concentrations of ATM and 5 at lowest FICI (ATM/5)", "setting": "PA-039, blaNDM; PA-039", "result": "4/8"}, {"measurement": "Lowest FICI (ATM/5)", "setting": "PA-039, blaNDM; PA-039", "result": 0.27}, {"measurement": "Minimum concentration of 5 to make sensitive to ATM", "setting": "PA-039, blaNDM; PA-039", "result": 4, "unit": "mg/L"}, {"measurement": "Susceptibility to ATM", "setting": "PA-039, blaNDM; PA-039, ATM/5", "result": "S (S (sensitive, MIC ≤ 8 mg/L))"}, {"measurement": "FD (fold decrease in MIC of ATM with 5)", "setting": "PA-039, blaNDM; PA-039, lowest-FICI combination", "result": 4}, {"measurement": "MIC", "setting": "PA-039, blaNDM; 5 at 1 mg/L", "result": 16, "unit": "µg/mL"}, {"measurement": "MIC", "setting": "PA-039, blaNDM; 5 at 2 mg/L", "result": 16, "unit": "µg/mL"}, {"measurement": "MIC", "setting": "PA-039, blaNDM; 5 at 4 mg/L", "result": 8, "unit": "µg/mL"}, {"measurement": "MIC", "setting": "PA-039, blaNDM; 5 at 8 mg/L", "result": 4, "unit": "µg/mL"}, {"measurement": "MIC", "setting": "PA-039, blaNDM; 5 at 16 mg/L", "result": 4, "unit": "µg/mL"}, {"measurement": "MIC", "setting": "PA-039, blaNDM; 5 at 32 mg/L", "result": 4, "unit": "µg/mL"}, {"measurement": "MIC", "setting": "PA-039, blaNDM; 5 at 64 mg/L", "result": 4, "unit": "µg/mL"}]}
